#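 1) Cells in 96-well plates. 2) Compound, 48 h, 5 concentrations. 3) Linear interpolation between surrounding doses. 4) Unreached endpoint = highest concentration. GI50 marks 50% less growth. At the TGI there is no net growth.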
# Columns and labels:
# Test in all cases: inhibition of tumour cell growth, NCI panel, 48 h
# [1] = tested on: EKVX NSCLC
# [2] = tested on: KM12 colon
# [3] = tested on: PC-3 prostate
# [4] = tested on: MCF7 breast
# [5] = tested on: SK-MEL-2 melanoma
# [6] = tested on: SNB-19 CNS
# [7] = tested on: NCI-H226 lung
# [8] = tested on: SN12C renal
# [9] = tested on: RPMI-8226 leukemia
# [10] = tested on: A498 renal
# [11] = tested on: HL-60(TB) leukemia
# [12] = tested on: OVCAR-5 ovarian
# [13] = tested on: SK-OV-3 ovarian
# [14] = tested on: OVCAR-3 ovarian
# [15] = tested on: MALME-3M melanoma
# [16] = tested on: SW-620 colon
# [17] = tested on: HCC-2998 colon
# [18] = tested on: MDA-MB-468 breast
# [19] = tested on: TK-10 renal
# [20] = tested on: IGROV1 ovarian
# [21] = tested on: COLO 205 colon
# [22] = tested on: HOP-92 NSCLC
# [23] = tested on: SF-268 CNS
# [24] = tested on: SR leukemia
# [25] = tested on: HT29 colon
# [26] = tested on: NCI-H460 lung
# [27] = tested on: OVCAR-8 ovarian
# [28] = tested on: SK-MEL-28 melanoma
# [29] = tested on: HCT-116 colon
# [30] = tested on: SF-539 CNS
# [31] = tested on: UACC-257 melanoma
# [32] = tested on: MDA-MB-231 breast
# [33] = tested on: BT-549 breast
# [34] = tested on: UACC-62 melanoma
# [35] = tested on: RXF 393 renal
# [36] = tested on: ACHN renal
# [37] = tested on: HCT-15 colon
# [38] = tested on: MDA-MB-435
# [39] = tested on: M14 melanoma
# [40] = tested on: SK-MEL-5 melanoma
# [41] = tested on: HOP-62 NSCLC
# [42] = tested on: A549 NSCLC
# [43] = tested on: 786-0 renal
# [44] = tested on: NCI-H23 lung
# [45] = tested on: CCRF-CEM leukemia
# [46] = tested on: NCI/ADR-RES ovarian
# [47] = tested on: OVCAR-4 ovarian
# [48] = tested on: UO-31 renal
# [49] = tested on: T-47D breast
# [50] = tested on: SF-295 CNS
# [51] = tested on: K-562 leukemia
# [52] = tested on: DU-145 prostate
# [53] = tested on: NCI-H522 lung
# [54] = tested on: HS 578T breast
# [55] = tested on: CAKI-1 renal
# [56] = tested on: U251 CNS
# [57] = tested on: MOLT-4 leukemia
# [58] = tested on: LOX IMVI melanoma
# [59] = tested on: SNB-75 CNS
compound,measurement,setting,value
C/C(=N\Nc1ccc(S(N)(=O)=O)cc1)c1ccc(N=Nc2c(Nc3ccccc3)[nH][nH]c2=O)cc1,GI50,[1],5.39 µM
same,TGI,[1],26.9 µM
same,GI50,[2],2.66 µM
same,TGI,[2],8.95 µM
same,GI50,[3],3.06 µM
same,TGI,[3],11.3 µM
same,GI50,[4],2.4 µM
same,TGI,[4],7.34 µM
same,GI50,[5],2.11 µM
same,TGI,[5],4.38 µM
same,GI50,[6],2.59 µM
same,TGI,[6],8.76 µM
same,GI50,[7],3.31 µM
same,TGI,[7],12.3 µM
same,GI50,[8],2.38 µM
same,TGI,[8],6.58 µM
same,GI50,[9],3.36 µM
same,TGI,[9],28.2 µM
same,GI50,[10],11.4 µM
same,TGI,[10],32.8 µM
same,GI50,[11],2.86 µM
same,TGI,[11],17.1 µM
same,GI50,[12],11 µM
same,TGI,[12],24.4 µM
same,GI50,[13],2.34 µM
same,TGI,[13],6.47 µM
same,GI50,[14],1.87 µM
same,TGI,[14],4.54 µM
same,GI50,[15],1.98 µM
same,TGI,[15],3.85 µM
same,GI50,[16],3.18 µM
same,TGI,[16],12.6 µM
same,GI50,[17],2.29 µM
same,TGI,[17],6.08 µM
same,GI50,[18],1.4 µM
same,TGI,[18],3 µM
same,GI50,[19],18.6 µM
same,TGI,[19],56.8 µM
same,GI50,[20],4.5 µM
same,TGI,[20],17.6 µM
same,GI50,[21],3.28 µM
same,TGI,[21],12 µM
same,GI50,[22],1.3 µM
same,TGI,[22],6.55 µM
same,GI50,[23],2.22 µM
same,TGI,[23],6.23 µM
same,GI50,[24],1.74 µM
same,TGI,[24],5.33 µM
same,GI50,[25],3.58 µM
same,TGI,[25],11.6 µM
same,GI50,[26],3.21 µM
same,TGI,[26],11.1 µM
same,GI50,[27],2.59 µM
same,TGI,[27],7.81 µM
same,GI50,[28],1.91 µM
same,TGI,[28],3.65 µM
same,GI50,[29],3.04 µM
same,TGI,[29],10.3 µM
same,GI50,[30],1.58 µM
same,TGI,[30],3.68 µM
same,GI50,[31],3.97 µM
same,TGI,[31],16.7 µM
same,GI50,[32],2 µM
same,TGI,[32],4.07 µM
same,GI50,[33],2.83 µM
same,TGI,[33],9.66 µM
same,GI50,[34],1.96 µM
same,TGI,[34],4.34 µM
same,GI50,[35],1.1 µM
same,TGI,[35],3.88 µM
same,GI50,[36],5.9 µM
same,TGI,[36],18.5 µM
same,GI50,[37],5.29 µM
same,TGI,[37],18.4 µM
same,GI50,[38],2.07 µM
same,TGI,[38],5.03 µM
same,GI50,[39],2.83 µM
same,TGI,[39],7.55 µM
same,GI50,[40],3.32 µM
same,TGI,[40],12.8 µM
same,GI50,[41],2.05 µM
same,TGI,[41],6 µM
same,GI50,[42],19.4 µM
same,TGI,[42],> 100 µM
same,GI50,[43],2.14 µM
same,TGI,[43],6.27 µM
same,GI50,[44],2.54 µM
same,TGI,[44],6.53 µM
same,GI50,[45],2.63 µM
same,TGI,[45],8.92 µM
same,GI50,[46],> 100 µM
same,TGI,[46],> 100 µM
same,GI50,[47],2.84 µM
same,TGI,[47],9.26 µM
same,GI50,[48],19.4 µM
same,TGI,[48],> 100 µM
same,GI50,[49],2.22 µM
same,TGI,[49],5.92 µM
same,GI50,[50],3.67 µM
same,TGI,[50],13.6 µM
same,GI50,[51],2.29 µM
same,TGI,[51],6.37 µM
same,GI50,[52],3.21 µM
same,TGI,[52],10.4 µM
same,GI50,[53],2.17 µM
same,TGI,[53],5.25 µM
same,GI50,[54],3.31 µM
same,TGI,[54],19.4 µM
same,GI50,[55],12.5 µM
same,TGI,[55],25.1 µM
same,GI50,[56],1.88 µM
same,TGI,[56],3.76 µM
same,GI50,[57],1.64 µM
same,TGI,[57],5.24 µM
same,GI50,[58],2.13 µM
same,TGI,[58],4.33 µM
CC[C@]12C=CCN3CC[C@]4(C(=C(C(=O)OC)C1)Nc1cc(OC)c([C@@H]5[C@H]6O[C@H]6[C@@]6(CC)CC(C(=O)OC)=C7Nc8cc(O)ccc8[C@@]78CCN5[C@@H]68)cc14)[C@@H]32,GI50,[1],3.7 µM
same,TGI,[1],31.7 µM
same,GI50,[2],3.27 µM
same,TGI,[2],14.9 µM
same,GI50,[3],1.99 µM
same,TGI,[3],16.7 µM
same,GI50,[4],1.73 µM
same,TGI,[4],11.6 µM
same,GI50,[5],8.75 µM
same,TGI,[5],19.8 µM
same,GI50,[6],14.6 µM
same,TGI,[6],> 56.5 µM
same,GI50,[7],5.95 µM
same,TGI,[7],15 µM
same,GI50,[8],6.01 µM
same,TGI,[8],15.3 µM
same,GI50,[9],1.53 µM
same,TGI,[9],> 56.5 µM
same,GI50,[10],13.1 µM
same,TGI,[10],40 µM
same,GI50,[11],1.78 µM
same,TGI,[11],8.34 µM
same,GI50,[12],10.5 µM
same,TGI,[12],27.5 µM
same,GI50,[13],17.7 µM
same,TGI,[13],> 56.5 µM
same,GI50,[14],3.92 µM
same,TGI,[14],12.1 µM
same,GI50,[15],5.97 µM
same,TGI,[15],12.8 µM
same,GI50,[16],5.67 µM
same,TGI,[16],14.6 µM
same,GI50,[17],3.32 µM
same,TGI,[17],10.9 µM
same,GI50,[18],1.11 µM
same,TGI,[18],7.28 µM
same,GI50,[19],21.2 µM
same,TGI,[19],> 56.5 µM
same,GI50,[20],8.95 µM
same,TGI,[20],25 µM
same,GI50,[21],10.4 µM
same,TGI,[21],24 µM
same,GI50,[22],5.99 µM
same,TGI,[22],14.3 µM
same,GI50,[23],5.6 µM
same,TGI,[23],43.5 µM
same,GI50,[24],2.18 µM
same,TGI,[24],21.7 µM
same,GI50,[25],6.12 µM
same,TGI,[25],18.9 µM
same,GI50,[26],2.87 µM
same,TGI,[26],10.9 µM
same,GI50,[27],12.4 µM
same,TGI,[27],> 56.5 µM
same,GI50,[28],7.57 µM
same,TGI,[28],24.5 µM
same,GI50,[29],2.17 µM
same,TGI,[29],12.6 µM
same,GI50,[30],10.8 µM
same,TGI,[30],27.4 µM
same,GI50,[31],4.3 µM
same,TGI,[31],15.5 µM
same,GI50,[32],6.8 µM
same,TGI,[32],13.9 µM
same,GI50,[33],6.27 µM
same,TGI,[33],18.9 µM
same,GI50,[34],3.27 µM
same,TGI,[34],11.6 µM
same,GI50,[35],2.6 µM
same,TGI,[35],12.5 µM
same,GI50,[36],6.67 µM
same,TGI,[36],20.3 µM
same,GI50,[37],2.91 µM
same,TGI,[37],11.4 µM
same,GI50,[38],3.71 µM
same,TGI,[38],14.2 µM
same,GI50,[39],2.91 µM
same,TGI,[39],16.3 µM
same,GI50,[40],3.66 µM
same,TGI,[40],11.4 µM
same,GI50,[41],12.9 µM
same,TGI,[41],27.5 µM
same,GI50,[42],4.56 µM
same,TGI,[42],> 56.5 µM
same,GI50,[59],2.95 µM
same,TGI,[59],> 56.5 µM
same,GI50,[43],5.71 µM
same,TGI,[43],49.4 µM
same,GI50,[44],6.13 µM
same,TGI,[44],18.8 µM
same,GI50,[45],2.19 µM
same,TGI,[45],> 56.5 µM
same,GI50,[46],7.86 µM
same,TGI,[46],26.8 µM
same,GI50,[47],5.68 µM
same,TGI,[47],> 56.5 µM
same,GI50,[48],4.31 µM
same,TGI,[48],13.8 µM
same,GI50,[49],1.9 µM
same,TGI,[49],23.8 µM
same,GI50,[50],5 µM
same,TGI,[50],15.3 µM
same,GI50,[51],1.91 µM
same,TGI,[51],12.4 µM
same,GI50,[52],12.3 µM
same,TGI,[52],50 µM
same,GI50,[53],2.41 µM
same,TGI,[53],11.6 µM
same,GI50,[54],11.7 µM
same,TGI,[54],> 56.5 µM
same,GI50,[55],4 µM
same,TGI,[55],50.1 µM
same,GI50,[56],4.33 µM
same,TGI,[56],14.6 µM
same,GI50,[57],1.34 µM
same,TGI,[57],6.82 µM
same,GI50,[58],3.11 µM
same,TGI,[58],10.5 µM

# From PubChem BioAssay (NCI)
